Laboratory results reported in patent US10519107B2, “Sulfonamide compounds and their use as STAT5 inhibitors” (Governing Council of the University of Toronto, priority 2014, dated 2019).

Assays:
[1] = molecular target: T1, wildtype STAT5B protein (SH2 domain) (Homo sapiens, UniProt P51692); assay: Fluorescence polarization competitive binding, STAT5b; conditions: FP; for Ki: converted from IC50 with Equation 1; for IC50: 5-FAM-GpYLVLDKW 10 nM, STAT5B 250 nM
T1 sequence (P51692 1-787): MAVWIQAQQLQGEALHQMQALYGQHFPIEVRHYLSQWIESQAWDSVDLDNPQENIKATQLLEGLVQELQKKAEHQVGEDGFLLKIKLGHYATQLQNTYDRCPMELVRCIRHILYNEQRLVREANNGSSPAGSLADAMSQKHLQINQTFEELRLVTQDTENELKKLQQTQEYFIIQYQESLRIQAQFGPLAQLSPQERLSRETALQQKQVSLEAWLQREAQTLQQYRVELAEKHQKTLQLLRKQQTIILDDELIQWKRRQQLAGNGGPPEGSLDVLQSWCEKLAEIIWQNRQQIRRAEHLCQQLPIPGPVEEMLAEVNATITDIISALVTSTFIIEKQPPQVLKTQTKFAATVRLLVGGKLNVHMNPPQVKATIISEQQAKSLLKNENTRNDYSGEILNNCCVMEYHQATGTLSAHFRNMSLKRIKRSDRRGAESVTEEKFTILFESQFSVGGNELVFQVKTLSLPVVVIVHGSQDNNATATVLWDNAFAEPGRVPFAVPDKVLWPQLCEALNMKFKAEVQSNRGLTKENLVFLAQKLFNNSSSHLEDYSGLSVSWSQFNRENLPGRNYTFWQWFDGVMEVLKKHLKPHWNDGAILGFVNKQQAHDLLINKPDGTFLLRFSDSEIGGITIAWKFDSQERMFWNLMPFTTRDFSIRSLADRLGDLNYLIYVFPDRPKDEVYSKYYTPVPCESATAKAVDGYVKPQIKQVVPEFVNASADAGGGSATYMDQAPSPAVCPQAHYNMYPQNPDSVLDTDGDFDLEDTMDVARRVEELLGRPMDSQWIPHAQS
Protocol: (§1) Fluorescence assays were performed in flat black 384-well plates (Corning) and fluorescence polarization measurements were taken with the Infinite M1000 machine (Tecan, Crailsheim, Germany). The buffer conditions for all assays were 20 mM HEPES, 50 mM NaCl, 1 mM EDTA, 2 mM dithiothreitol, pH 7.5 and the final DMSO concentration in the wells was kept constant at 10%.
The point at which 80% of the fluoresceinated-phosphopeptide was bound was used as the optimal protein concentration required for the competitive fluorescent polarization assays.
Compounds were titrated at concentrations ranging from 1->60,000 nM and incubated for a further 15 minutes at which point fluorescence polarization measurements were taken in triplicate. The final well concentrations of the fluoresceinated-phosphopeptide and STAT5B were 10 nM and 250 nM, respectively.
The resulting fluorescence polarization measurements were normalized and plotted against compound concentration on a logarithmic scale. The raw data was fitted with a standard dose-normalized response inhibition curve using GraphPad Prism 6 software.
(§2) Modified Cheng-Pruskoff equation containing a correction factor for protein concentration.

[2] = molecular target: wildtype STAT3 protein (Homo sapiens, UniProt P40763); assay: Fluorescence polarization competitive binding, STAT3; conditions: FP; converted from IC50 with Equation 1
wildtype STAT3 protein, sequence (P40763 whole entry, species assumed, the tested form may be a part): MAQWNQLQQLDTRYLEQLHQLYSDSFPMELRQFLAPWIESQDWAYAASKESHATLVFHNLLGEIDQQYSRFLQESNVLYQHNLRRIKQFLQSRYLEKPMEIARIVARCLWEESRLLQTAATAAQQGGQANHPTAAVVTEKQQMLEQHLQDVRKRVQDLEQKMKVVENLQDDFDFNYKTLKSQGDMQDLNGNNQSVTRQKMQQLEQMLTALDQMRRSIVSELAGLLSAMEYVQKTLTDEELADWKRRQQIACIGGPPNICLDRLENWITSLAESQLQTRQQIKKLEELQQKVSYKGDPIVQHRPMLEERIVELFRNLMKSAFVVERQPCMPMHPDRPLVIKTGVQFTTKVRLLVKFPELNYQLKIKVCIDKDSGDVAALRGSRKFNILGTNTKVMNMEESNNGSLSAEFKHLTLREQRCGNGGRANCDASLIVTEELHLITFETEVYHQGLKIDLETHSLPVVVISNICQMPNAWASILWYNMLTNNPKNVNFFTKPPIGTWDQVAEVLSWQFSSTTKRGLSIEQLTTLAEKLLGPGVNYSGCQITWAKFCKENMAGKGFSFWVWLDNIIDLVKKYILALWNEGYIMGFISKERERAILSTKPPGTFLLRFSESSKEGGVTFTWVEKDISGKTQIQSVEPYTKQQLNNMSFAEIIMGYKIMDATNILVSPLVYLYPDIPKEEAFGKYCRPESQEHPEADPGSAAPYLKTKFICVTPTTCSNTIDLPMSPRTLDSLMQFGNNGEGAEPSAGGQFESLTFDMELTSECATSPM
Protocol: as §1, with “Binding of compounds of the disclosure to the STAT5b SH2 domain was assessed using fluorescence polarization assays similar to those previously reported.^15 Analogous assays were also performed with STAT3 protein to determine the specificity of the compounds (13a-d). Fluorescence” for “Fluorescence”
Calibration curves for the wildtype STAT3 and STAT5b proteins were derived by incubating a 10 nM final concentration of fluoresceinated-phosphopeptide (5-FAM-pYLPQTC (SEQ ID NO:1) and 5-FAM-GpYLVLDKW (SEQ ID NO:2) for STAT3 and STAT5B, respectively), which are known to bind the SH2 domains, with increasing concentrations of protein (as shown in FIG. 3). The point at which 80% of the fluoresceinated-phosphopeptide was bound was used as the optimal protein concentration required for the competitive fluorescent polarization assays.
For the STAT5b fluorescence polarization assays, the 5-FAM-GpYLVLDKW (SEQ ID NO:2) peptide and STAT5b protein were first incubated for 30 minutes at room temperature. Compounds were titrated at concentrations ranging from 1->60,000 nM and incubated for a further 15 minutes at which point fluorescence polarization measurements were taken in triplicate. The final well concentrations of the fluoresceinated-phosphopeptide and STAT5B were 10 nM and 250 nM, respectively. The same protocol was used for the analogous STAT3 FP assays, except that the 5-FAM-pYLPQTC (SEQ ID NO:1) peptide was used as a probe and the final STAT3 concentration was 150 nM in each well.
The resulting fluorescence polarization measurements were normalized and plotted against compound concentration on a logarithmic scale. The raw data was fitted with a standard dose-normalized response inhibition curve using GraphPad Prism 6 software. The IC50 values were converted to Ki values using Equation 1, which corrects for protein concentration and is a more accurate determination of inhibitory constants in a fluorescence polarization assay than the Cheng-Pruskoff equation.^15 All inhibitory constants and calculated Ki values are summarized in Table 1.
as §2

| SMILES | Ki [1] [µM] | Ki [2] [µM] | IC50 [1] [µM] |
| --- | --- | --- | --- |
| O=c1ccoc2ccccc12 [Chromone, reference compound] | > 60 | – | – |
| Cc1cc(C)c(S(=O)(=O)N(CC(=O)N(Cc2cc(C(C)(C)C)cc(C(C)(C)C)c2)c2ccc(C(=O)O)c(O)c2)Cc2ccc(Cl)cc2)c(C)c1 [Compound 13b, 4-(2-((N-(4-chlorobenzyl)-2,4,6-trimethylphenyl)sulfonamido)-N-(3,5-di-tert-butylbenzyl)acetamido)-2-hydroxybenzoic Acid] | 2.57 | > 60 | 6.53 |
| Cc1cc(C)c(S(=O)(=O)N(CC(=O)N(Cc2ccc3ccccc3c2)c2ccc(C(=O)O)c(O)c2)Cc2ccc(Cl)cc2)c(C)c1 [Compound 13c, 4-(2-((N-(4-chlorobenzyl)-2,4,6-trimethylphenyl)sulfonamido)-N-(naphthalene-2-ylmethyl)acetamido)-2-hydroxybenzoic Acid] | 3.24 | > 60 | 8.2 |
| O=C(O)c1ccc(N(Cc2ccc3ccccc3c2)C(=O)CN(Cc2ccc(Cl)cc2)S(=O)(=O)c2c(F)c(F)c(F)c(F)c2F)cc1O [Compound 13d, 4-(2-((N-(4-chlorobenzyl)-2,3,4,5,6-pentafluorophenyl)sulfonamido)-N-(-naphthalene-2-ylmethyl)acetamido)-2-hydroxybenzoic Acid] | 1.56 | > 60 | 3.95 |
